Results published in patent publication US10793564B2, “Amino acid compounds and methods of use” (Pliant Therapeutics, Inc., priority 2018, dated 2020).

These compounds were tested against recombinant human integrin αVβ6 (Homo sapiens (Human), UniProt P06756+P18564) (assay: Solid phase integrin αVβ6 binding assay). Settings: inhibition of recombinant TGFβ1 LAP binding to coated integrin, IC50 presented in four ranges, read-out: αvβ6 Inhibition IC50 (nM) - range.
Method in brief: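 Plates coated with recombinant human αVβ6 (2 μg/mL) and blocked; compounds competed with TGFβ1 LAP (0.67 μg/mL) in Mn2+ (0.5 mM)/BSA/sucrose TBS for 2 h at 25° C. Bound LAP detected by biotin anti-LAP and peroxidase-streptavidin; IC50 by four-parameter logistic fit.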

Chain of recombinant human integrin αVβ6 (P06756 31-992): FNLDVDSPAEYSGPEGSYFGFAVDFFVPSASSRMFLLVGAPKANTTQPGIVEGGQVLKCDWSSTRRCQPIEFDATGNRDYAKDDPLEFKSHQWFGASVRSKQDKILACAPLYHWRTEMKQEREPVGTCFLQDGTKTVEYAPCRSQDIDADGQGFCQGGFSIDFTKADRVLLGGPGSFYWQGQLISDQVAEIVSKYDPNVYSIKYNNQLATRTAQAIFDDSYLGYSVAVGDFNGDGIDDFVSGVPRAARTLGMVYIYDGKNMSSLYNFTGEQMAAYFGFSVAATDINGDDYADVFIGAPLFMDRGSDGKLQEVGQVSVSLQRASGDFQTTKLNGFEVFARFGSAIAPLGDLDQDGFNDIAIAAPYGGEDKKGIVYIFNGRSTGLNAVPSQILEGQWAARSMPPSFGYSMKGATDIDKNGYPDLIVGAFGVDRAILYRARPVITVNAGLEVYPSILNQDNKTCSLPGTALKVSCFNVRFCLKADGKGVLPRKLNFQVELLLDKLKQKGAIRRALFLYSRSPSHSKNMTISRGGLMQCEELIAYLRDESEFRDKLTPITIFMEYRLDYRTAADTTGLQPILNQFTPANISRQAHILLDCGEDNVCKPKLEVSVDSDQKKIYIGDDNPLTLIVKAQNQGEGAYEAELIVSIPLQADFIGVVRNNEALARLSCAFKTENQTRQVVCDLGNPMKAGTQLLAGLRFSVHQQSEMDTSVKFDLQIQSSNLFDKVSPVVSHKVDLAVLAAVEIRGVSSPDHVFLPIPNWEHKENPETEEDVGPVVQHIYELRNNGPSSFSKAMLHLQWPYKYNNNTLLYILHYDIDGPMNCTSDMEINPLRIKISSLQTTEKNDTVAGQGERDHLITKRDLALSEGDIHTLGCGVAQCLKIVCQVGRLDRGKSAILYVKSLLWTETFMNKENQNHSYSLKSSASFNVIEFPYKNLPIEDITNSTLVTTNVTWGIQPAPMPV
Chain of recombinant human integrin αVβ6 (P18564 22-707): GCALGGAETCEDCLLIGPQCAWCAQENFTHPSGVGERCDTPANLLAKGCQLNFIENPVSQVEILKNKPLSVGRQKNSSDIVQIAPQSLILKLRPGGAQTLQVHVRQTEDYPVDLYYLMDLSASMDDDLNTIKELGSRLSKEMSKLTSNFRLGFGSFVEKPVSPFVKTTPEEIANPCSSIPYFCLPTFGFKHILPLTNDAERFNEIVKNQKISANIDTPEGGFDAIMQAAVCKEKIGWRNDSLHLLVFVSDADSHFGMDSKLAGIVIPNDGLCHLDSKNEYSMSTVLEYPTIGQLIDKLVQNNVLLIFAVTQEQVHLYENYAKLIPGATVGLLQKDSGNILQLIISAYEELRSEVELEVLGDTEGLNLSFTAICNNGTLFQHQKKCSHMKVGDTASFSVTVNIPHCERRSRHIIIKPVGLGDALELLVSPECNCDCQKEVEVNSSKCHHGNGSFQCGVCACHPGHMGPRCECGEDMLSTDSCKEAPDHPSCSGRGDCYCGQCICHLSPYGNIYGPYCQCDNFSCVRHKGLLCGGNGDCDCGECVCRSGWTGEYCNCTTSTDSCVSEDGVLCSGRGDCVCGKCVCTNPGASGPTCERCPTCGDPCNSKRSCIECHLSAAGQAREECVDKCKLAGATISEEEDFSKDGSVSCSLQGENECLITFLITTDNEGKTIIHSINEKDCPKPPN

| Compound | IC50 |
| --- | --- |
| O=C(O)[C@H](CCN(CCCCc1ccc2c(n1)NCCC2)C1CC1)Nc1ncnc2ccccc12 [Compound 6, (S)-4-(cyclopropyl(4-(5,6,7,8-tetrahydro-1,8-naphthyridin-2-yl)butyl)amino)-2-(quinazolin-4-ylamino) butanoic Acid] | 50 to 250 nM |
| CC(C)(O)CN(CCCCc1ccc2c(n1)NCCC2)CC[C@H](Nc1ccncn1)C(=O)O [Compound 4, (S)-4-((2-hydroxy-2-methylpropyl) (4-(5,6,7,8-tetrahydro-1,8-naphthyridin-2-yl)butyl)amino)-2-(pyrimidin-4-ylamino) butanoic Acid] | 50 to 250 nM |
| O=C(O)[C@H](CCN(CCCCc1ccc2c(n1)NCCC2)C1CC1)Nc1cc(C(F)F)ncn1 [Compound 1, (S)-4-(cyclopropyl(4-(5,6,7,8-tetrahydro-1,8-naphthyridin-2-yl)butyl)amino)-2-((6-(difluoromethyl)pyrimidin-4-yl)amino) butanoic Acid] | 250 to 1000 nM |
| COCCN(CCCCc1ccc2c(n1)NCCC2)CC[C@H](Nc1ncnc2cc(F)ccc12)C(=O)O [Compound 7, (S)-2-((7-fluoroquinazolin-4-yl)amino)-4-((2-methoxyethyl) (4-(5,6,7,8-tetrahydro-1,8-naphthyridin-2-yl)butyl)amino) butanoic Acid] | < 50 nM |
| COCCN(CCCCc1ccc2c(n1)NCCC2)CC[C@H](Nc1cc(-n2cccn2)ncn1)C(=O)O [Compound 44, (S)-2-((6-(1H-pyrazol-1-yl)pyrimidin-4-yl)amino)-4-((2-methoxyethyl) (4-(5,6,7,8-tetrahydro-1,8-naphthyridin-2-yl)butyl)amino) butanoic Acid] | < 50 nM |
| Cc1nc(N[C@@H](CCN(CCCCc2ccc3c(n2)NCCC3)CC2CC(F)(F)C2)C(=O)O)c2ccc(F)cc2n1 [Compound 33, (S)-4-(((3,3-difluorocyclobutyl)methyl) (4-(5,6,7,8-tetrahydro-1,8-naphthyridin-2-yl)butyl)amino)-2-((7-fluoro-2-methylquinazolin-4-yl)amino) butanoic Acid] | < 50 nM |
| COC[C@@H](F)CN(CCCCc1ccc2c(n1)NCCC2)CC[C@H](Nc1nc(C)nc2ccccc12)C(=O)O [Compound 46, (S)-4-(((S)-2-fluoro-3-methoxypropyl) (4-(5,6,7,8-tetrahydro-1,8-naphthyridin-2-yl)butyl)amino)-2-((2-methylquinazolin-4-yl)amino) butanoic Acid] | < 50 nM |
| O=C(O)[C@H](CCN(CCCF)CCCCc1ccc2c(n1)NCCC2)Nc1ncnc2ccccc12 [Compound 30, (S)-4-((3-fluoropropyl) (4-(5,6,7,8-tetrahydro-1,8-naphthyridin-2-yl)butyl)amino)-2-(quinazolin-4-ylamino) butanoic Acid] | < 50 nM |
| COCCN(CCCCc1ccc2c(n1)NCCC2)CC[C@H](Nc1cc(C)nc(C(F)(F)F)n1)C(=O)O [Compound 26, (S)-4-((2-methoxyethyl) (4-(5,6,7,8-tetrahydro-1,8-naphthyridin-2-yl)butyl)amino)-2-((6-methyl-2-(trifluoromethyl)pyrimidin-4-yl)amino) butanoic Acid] | < 50 nM |
| Cc1nc(N[C@@H](CCN(CCCCc2ccc3c(n2)NCCC3)CCOc2ccc(F)cc2)C(=O)O)c2ccc(F)cc2n1 [Compound 40, (S)-2-((7-fluoro-2-methylquinazolin-4-yl)amino)-4-((2-(4-fluorophenoxy)ethyl) (4-(5,6,7,8-tetrahydro-1,8-naphthyridin-2-yl)butyl)amino) butanoic Acid] | < 50 nM |
| COCCN(CCCCc1ccc2c(n1)NCCC2)CC[C@H](Nc1nc(C)nc2cc(F)ccc12)C(=O)O [Compound 12, (S)-2-((7-fluoro-2-methylquinazolin-4-yl)amino)-4-((2-methoxyethyl) (4-(5,6,7,8-tetrahydro-1,8-naphthyridin-2-yl)butyl)amino) butanoic Acid] | < 50 nM |

Other lines, results leading:

| IC50 | Compound |
| --- | --- |
| < 50 nM | Cc1ncccc1OCCN(CCCCc1ccc2c(n1)NCCC2)CC[C@H](Nc1ncnc2cccnc12)C(=O)O [Compound 54, (S)-4-((2-((2-methylpyridin-3-yl)oxy)ethyl) (4-(5,6,7,8-tetrahydro-1,8-naphthyridin-2-yl)butyl)amino)-2-(pyrido[3,2-d]pyrimidin-4-ylamino) butanoic Acid] |
| > 1000 nM | COC[C@@H](F)CN(CCCCc1ccc2c(n1)NCCC2)CC[C@H](Nc1cc(-c2ccccc2)ncn1)C(=O)O [Compound 128, (S)-4-(((S)-2-fluoro-3-methoxypropyl) (4-(5,6,7,8-tetrahydro-1,8-naphthyridin-2-yl)butyl)amino)-2-((6-phenylpyrimidin-4-yl)amino) butanoic Acid] |
| 50 to 250 nM | O=C(O)[C@H](CCN(CCCCc1ccc2c(n1)NCCC2)C1CC1)Nc1ccnc(C(F)(F)F)n1 [Compound 115, (S)-4-(cyclopropyl(4-(5,6,7,8-tetrahydro-1,8-naphthyridin-2-yl)butyl)amino)-2-((2-(trifluoromethyl)pyrimidin-4-yl)amino) butanoic Acid] |
| < 50 nM | O=C(O)[C@H](CCN(CCCCc1ccc2c(n1)NCCC2)CCOc1ccccc1)Nc1ccnc(C(F)(F)F)n1 [Compound 92, (S)-4-((2-phenoxyethyl) (4-(5,6,7,8-tetrahydro-1,8-naphthyridin-2-yl)butyl)amino)-2-((2-(trifluoromethyl)pyrimidin-4-yl)amino) butanoic Acid] |
| < 50 nM | CCOCCN(CCCCc1ccc2c(n1)NCCC2)CC[C@H](Nc1ncnc2ccccc12)C(=O)O [Compound 55, (S)-4-((2-ethoxyethyl) (4-(5,6,7,8-tetrahydro-1,8-naphthyridin-2-yl)butyl)amino)-2-(quinazolin-4-ylamino) butanoic Acid] |
| < 50 nM | O=C(O)[C@H](CCN(CCCCc1ccc2c(n1)NCCC2)CCOc1ccccc1)Nc1ncc(C2CC2)cn1 [Compound 117, (S)-2-((5-cyclopropylpyrimidin-2-yl)amino)-4-((2-phenoxyethyl) (4-(5,6,7,8-tetrahydro-1,8-naphthyridin-2-yl)butyl)amino) butanoic Acid] |
| < 50 nM | O=C(O)[C@H](CCN(CCCCc1ccc2c(n1)NCCC2)CCOc1ccccc1)Nc1cc(-n2cccn2)ncn1 [Compound 91, (S)-2-((6-(1H-pyrazol-1-yl)pyrimidin-4-yl)amino)-4-((2-phenoxyethyl) (4-(5,6,7,8-tetrahydro-1,8-naphthyridin-2-yl)butyl)amino) butanoic Acid] |
| > 1000 nM | COC[C@@H](F)CN(CCCCc1ccc2c(n1)NCCC2)CC[C@H](Nc1cc(-n2cccn2)ncn1)C(=O)O [Compound 108, (S)-2-((6-(1H-pyrazol-1-yl)pyrimidin-4-yl)amino)-4-(((S)-2-fluoro-3-methoxypropyl) (4-(5,6,7,8-tetrahydro-1,8-naphthyridin-2-yl)butyl)amino) butanoic Acid] |
| < 50 nM | COC[C@@H](F)CN(CCCCc1ccc2c(n1)NCCC2)CC[C@H](Nc1ncnc2c1cnn2C)C(=O)O [Compound 105, (S)-4-(((S)-2-fluoro-3-methoxypropyl) (4-(5,6,7,8-tetrahydro-1,8-naphthyridin-2-yl)butyl)amino)-2-((1-methyl-1H-pyrazolo[3,4-d]pyrimidin-4-yl)amino) butanoic Acid] |
| 50 to 250 nM | O=C(O)[C@H](CCN(CCCCc1ccc2c(n1)NCCC2)CC1(F)COC1)Nc1ncnc2ccccc12 [Compound 147, (S)-4-(((3-fluorooxetan-3-yl)methyl) (4-(5,6,7,8-tetrahydro-1,8-naphthyridin-2-yl)butyl)amino)-2-(quinazolin-4-ylamino) butanoic Acid] |
| > 1000 nM | O=C(O)[C@H](CCN(CCCCc1ccc2c(n1)NCCC2)CC(F)F)Nc1ncc(C2CC2)cn1 [Compound 146, (S)-2-((5-cyclopropylpyrimidin-2-yl)amino)-4-((2,2-difluoroethyl) (4-(5,6,7,8-tetrahydro-1,8-naphthyridin-2-yl)butyl)amino) butanoic Acid] |
| > 1000 nM | Cn1ncc2c(N[C@@H](CCN(CCCCc3ccc4c(n3)NCCC4)CC(F)F)C(=O)O)ncnc21 [Compound 88, (S)-4-((2,2-difluoroethyl) (4-(5,6,7,8-tetrahydro-1,8-naphthyridin-2-yl)butyl)amino)-2-((1-methyl-1H-pyrazolo[3,4-d]pyrimidin-4-yl)amino) butanoic Acid] |
| 50 to 250 nM | O=C(O)[C@H](CCN(CCCCc1ccc2c(n1)NCCC2)CCC(F)F)Nc1ccnc(C(F)(F)F)n1 [Compound 134, (S)-4-((3,3-difluoropropyl) (4-(5,6,7,8-tetrahydro-1,8-naphthyridin-2-yl)butyl)amino)-2-((2-(trifluoromethyl)pyrimidin-4-yl)amino) butanoic Acid] |
| > 1000 nM | O=C(O)[C@H](CCN(CCCCc1ccc2c(n1)NCCC2)CC(F)F)Nc1cc(-c2ccccc2)ncn1 [Compound 142, (S)-4-((2,2-difluoroethyl) (4-(5,6,7,8-tetrahydro-1,8-naphthyridin-2-yl)butyl)amino)-2-((6-phenylpyrimidin-4-yl)amino) butanoic Acid] |
| < 50 nM | CO[C@H](C)CN(CCCCc1ccc2c(n1)NCCC2)CC[C@H](Nc1nc(C)nc2cc(F)ccc12)C(=O)O [Compound 65, (S)-2-((7-fluoro-2-methylquinazolin-4-yl)amino)-4-(((R)-2-methoxypropyl) (4-(5,6,7,8-tetrahydro-1,8-naphthyridin-2-yl)butyl)amino) butanoic Acid] |
| < 50 nM | Cn1ncc2c(N[C@@H](CCN(CCCCc3ccc4c(n3)NCCC4)CCOc3ccccc3)C(=O)O)ncnc21 [Compound 82, (S)-2-((1-methyl-1H-pyrazolo[3,4-d]pyrimidin-4-yl)amino)-4-((2-phenoxyethyl) (4-(5,6,7,8-tetrahydro-1,8-naphthyridin-2-yl)butyl)amino) butanoic Acid] |
| < 50 nM | CO[C@H](C)CN(CCCCc1ccc2c(n1)NCCC2)CC[C@H](Nc1nccnc1C#N)C(=O)O [Compound 76, (S)-2-((3-cyanopyrazin-2-yl)amino)-4-(((R)-2-methoxypropyl) (4-(5,6,7,8-tetrahydro-1,8-naphthyridin-2-yl)butyl)amino) butanoic Acid] |
